Experimental findings from patent US20240299698A1, “PREVENTION AND TREATMENT OF POST-OPERATIVE COGNITIVE DYSFUNCTION (POCD)” (Noetix Pharma LLC, priority 2022, published 2024) are described below.

What all share (format): in vivo, Male C57BI/6 mice
The nature of series [1]: Body weight monitoring after surgery. To be noted: Acute and Chronic dose groups vs controls. How it is done:
Mice were weighed 24 hours after arrival, weekly prior to the initiation of pirfenidone administration, and then daily throughout the remainder of the study. Post-induction, animals were assessed daily to monitor body condition, pain response, and general recovery parameters. • Test System: Male C57BI/6 mice • Number of Animals/Group: 12 animals per group (total of 48 mice) • Age: Cohort 1: 12 weeks at arrival • Cohort 2: 10 weeks at arrival • Model Induction: Performed at 14 weeks of age • Weight: 31.6±0.42 SEM g at time of surgery • Allocation: Animals were pseudo-randomly assigned to treatment groups balanced for weight • Health inspection: A health inspection was performed by a clinical veterinarian prior to the commencement of the study.
Mice were weighed 24 hours after arrival, weekly prior to the initiation of Test Article administration, and then daily throughout the remainder of the study.

Series [2] deals with mouse model of (POCD). The series is described as follows: Novel object recognition testing in laparotomy mouse model of POCD. To be noted: for novel object preference, 24-hour (long term) testing: PSD6. An excerpt:
(§1) To induce POCD, mice were anesthetized with isoflurane and maintained at a surgical plane of anesthesia (2-2.5%). The abdomen was shaved and cleaned/disinfected with both betadine and ethanol (70%). A 1.5 cm vertical incision was made along the midline of the abdomen, perforating the skin and the peritoneal cavity. A sterile blunt probe was inserted into the cavity, and the abdominal viscera and musculature were manipulated for five minutes. Abdominal muscles and skin were sutured, polysporin and topical lidocaine were applied to the incision site, and buprenorphine (0.1 mg/kg s.c.) was administered. Animals were placed into a clean, pre-warmed home cage for recovery and housed singly thereafter.
Novel object recognition (NOR) is a tool used to assess the ability of mice to differentiate between familiar and novel objects (i.e., recognition memory). The paradigm relies on the tendency of rodents to interact more with a novel object than a familiar one. In this task, acclimation to the test arena was provided on the day prior to training (PSD4) and the initial test trial (short-term recall), presented one hour following training on PSD5. The second test trial (long-term recall) was performed 24 hours later (PSD6). Object recognition may be determined through evaluation of the percent time spent exploring a novel object relative to the total time spent exploring both novel and familiar objects; normal animals will spend more time exploring a novel object. If the exploration of both objects is the same, this behavior can be a sign of a recognition memory deficit.
The acclimation process was as follows: 1. The animal was brought into the testing room in a transfer cage. 2. Video recording was begun and the animal's ID card was recorded. 3. The mouse was placed in the center of the arena and allowed to explore freely for 5 minutes. 4. The mouse was returned to its home cage.
The paired object training process was as follows: 1. The animal was brought into the testing room in a transfer cage. 2. Video recording was begun and the animal's ID card was recorded. 3. The mouse was placed in the center of the arena and allowed to explore freely for 10 minutes. 4. The mouse was returned to its home cage.
The novel object (1 hour) test was performed as follows: 1. The arena was prepared with one original object (block) and one novel object (ball) present. 2. The animal was brought into the testing room in a transfer cage. 3. Video recording was begun and the animal's ID card was recorded. 4. The mouse was placed in the center of the arena and allowed to explore for 10 minutes. 5. The mouse was returned to its home cage.
The novel object (24 hour) test was performed as follows: 1. The arena was prepared with one original object (block) and one novel object (dome) present. 2. The animal was brought into the testing room in a transfer cage. 3. Video recording was begun and the animal's ID card was recorded. 4. The mouse was placed in the center of the arena and allowed to explore for 10 minutes. 5. The mouse was returned to its home cage.

The subject of series [3] is mouse model of (POCD). The series is described as follows: Morris water maze testing and probe trial in laparotomy mouse model of POCD. To be noted: PSD7.
Text: as §1
Morris water maze testing is a well-established method for evaluating spatial learning and memory. To navigate this maze, the mouse must use extra-maze cues to locate a hidden platform and escape from the water. Testing was performed on PSD7. Mice were given two blocks of four 60 sec trials to find the hidden platform, with latency to reach the platform compared between blocks as a measure of learning/memory processes. Swim speed was evaluated to assess locomotor capabilities. On PSD8 (i.e., 24 hours later), mice were reintroduced into the maze without the platform present for a one-minute probe trial to assess reference memory.
The testing protocol was as follows: 1. The animal was brought into the testing room in a transfer cage. 2. Video recording was begun and the animal's ID card recorded. 3. The mouse was gently placed (i.e., not dropped) into the water at the appropriate start location (N, S, E, or W) facing the pool wall. 4. For 60 seconds, the mouse was allowed to locate and climb onto the submerged platform. If the mouse was unable to locate the platform within the allotted time, it was gently guided there and assigned a score of 61 seconds. 5. The mouse was allowed 60 seconds to recover on the platform and observe the extra-maze cues. If the moused jumped into the water, it was immediately retrieved and placed back on the platform for the remaining duration of the inter-trial interval. 6. Steps 3-5 were repeated for a total of 4 trials (Block 1). 7. The mouse was returned to the transfer cage lined with a dry towel. It was allowed 5 minutes to rest. 8 Steps 3-5 were repeated for a total of 4 trials (Block 2). 9. The mouse was gently dried and returned to its home cage.
The probe session was conducted as follows: 1. The animal was brought into the testing room in a transfer cage. 2. Video recording was begun and the animal's ID card recorded. 3. The mouse was gently placed (i.e., not dropped) into the water at the appropriate start location (N, S, E, or W) facing the pool wall. 4. The mouse was allowed to swim freely for 60 seconds. 5. The mouse was gently dried and returned to its home cage.

Each structure is given as a SMILES string.

Turning to `Cc1ccc(=O)n(-c2ccccc2)c1` [pirfenidone, 5-methyl-1-phenyl-2-(1H)-pyridone], in series [1], the “weight loss at 24 hours post-surgery” value is on record as “did not differ between groups”. The “preference index, within-group 1-hour vs 24-hour” value with mouse model of (POCD) [2] (Acute, p=0.762, paired t-test (statistically equivalent)) was “retained memory for the familiar object”; in the series with mouse model of (POCD) [2] (Chronic, p=0.828, paired t-test (statistically equivalent)) it was “retained memory for the familiar object”. In addition, the “total object exploration time, 1 hour test compared with training” value in the series with mouse model of (POCD) [2] (PSD5, Acute, p=0.01, within group paired t-test) is “decrease in total time spent interacting with objects”; with mouse model of (POCD) [2] (PSD5, Chronic, p=0.04, within group paired t-test), “decrease in total time spent interacting with objects”. In the series on mouse model of (POCD) [2] (PSD5, all treatment groups, p=0.376, one-way ANOVA), the “novel object preference, 1-hour (short term) testing, between groups” value is “no main effect for treatment”. In addition, the “novel object preference, 24-hour (long term) testing” value with mouse model of (POCD) [2] (Acute vs Disease Controls, p=0.08, LSD post-hoc) is recorded as “trend toward increased preference”; in the series with mouse model of (POCD) [2] (Chronic vs Disease Controls, p=0.09, LSD post-hoc), “trend toward increased preference”. The “latency to platform, overall (block x treatment)” value in the series with mouse model of (POCD) [3] (Acute vs Disease Controls, p=0.028) is listed as “statistically significant decrease in latency to platform”; with mouse model of (POCD) [3] (Chronic vs Disease Controls, p=0.052) it was “statistically significant decrease in latency to platform”. Further, the “latency to platform, Block 1” value is given as “found the platform faster than Disease Controls only” in the series with mouse model of (POCD) [3] (Acute vs Disease Controls, p=0.04, Tukey's HSD); “statistically significant decrease in latency to platform” in the series on mouse model of (POCD) [3] (Chronic compared to both Disease and Normal Controls, p=0.02 and p=0.03, Tukey's HSD). Besides, the “decrease in time to platform between blocks (spatial memory)” value is listed as “not seen” in the series on mouse model of (POCD) [3] (Acute, p=0.61, paired t-test) and “not seen” with mouse model of (POCD) [3] (Chronic, p=0.54, paired t-test). Besides, in the series with mouse model of (POCD) [3] (all groups, p=0.117, one-way ANOVA), the “latency to platform, Block 2, between groups” value is given as “no between groups main effect”.
